The values that follow come from US9688702B2, “Alpha-amino boronic acid derivatives, selective immunoproteasome inhibitors” (Ares Trading S.A, priority 2011, dated 2017).

Structures are written as SMILES.

One may read the IC50 as the midpoint of a concentration-inhibition curve. A higher IC50 goes with weaker potency.

In assay [1] the target is LMP7 (purified human immuno proteasome) (Homo sapiens, UniProt P28062). As to the kind of experiment: Determination of LMP7 activity (fluorescence intensity assay, Suc-LLVY-AMC). The class given is biochemical. As to conditions: for IC50: 40 μM Suc-LLVY-AMC, 37° C. The procedure, abridged:
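Purified human immunoproteasome (0.5 nM or 0.25 nM) preincubated 30 min at 37 °C with compounds (10 μM to 38 pM) in 50 mM Tris pH 7.4, 0.03% SDS. Suc-LLVY-AMC added at 40 μM; after 90 min at 37 °C, fluorescence read at ex 350/em 450 nm.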

For assay [2], the target named is Beta5 (purified human constitutive proteasome) (Homo sapiens, UniProt P28074). As to the kind of experiment: Determination of Beta5 activity (fluorescence intensity assay, Suc-LLVY-AMC). As to conditions: purified human constitutive proteasome 1.0 nM, 40 μM Suc-LLVY-AMC, 37° C. The class given is biochemical. The procedure, abridged:
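Purified human constitutive proteasome (1.0 nM) was preincubated 30 min at 37 °C with compounds (10 μM to 38 pM) in 50 mM Tris pH 7.4, 0.03% SDS. Suc-LLVY-AMC (40 μM) was then added and fluorescence (ex 350/em 450 nm) read after 90 min at 37 °C.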

Setting [3] is: purified human immuno proteasome 0.5 nM.
Setting [4] is: purified human immuno proteasome 0.25 nM (examples 79, 80, 83, 84, 85, 87, 88, 89, 90, 91, 93, 94, 96, 97, 101 and 110).

For `CC(=O)N[C@@H](Cc1ccc2ccccc2c1)B(O)O` [Example 95, (R)-(1-acetamido-2-(naphthalen-2-yl)ethyl)boronic acid], the “Selectivity LMP7 vs Beta5” value in assay [1] is listed as “+++ (+++: Selectivity > 30)”. Moreover, the results for the half-maximal inhibitory concentration (IC50) in assay [1] (setting [3]) and in assay [2] were 50 to 500 nM and 500 to 5000 nM, respectively.

On to `O=C(CCn1c(=O)sc2ccccc21)N[C@@H](Cc1ccc2ccccc2c1)B(O)O` [Example 96, (R)-(2-(naphthalen-2-yl)-1-(3-(2-oxobenzo[d]thiazol-3(2H)-yl)propanamido)ethyl)boronic acid], for which, in assay [1], the “Selectivity LMP7 vs Beta5” value is given as “+++ (+++: Selectivity > 30)”. The IC50 in assay [1] (setting [4]) and in assay [2] was under 50 nM throughout.

Turning to `O=C(CCn1cnc2ccccc21)N[C@@H](Cc1ccc2ccccc2c1)B(O)O` [Example 97, (R)-(1-(3-(1H-benzo[d]imidazol-1-yl)propanamido)-2-(naphthalen-2-yl)ethyl)boronic acid], the “Selectivity LMP7 vs Beta5” value in assay [1] is recorded as “++ (++: 10 < Selectivity < 30)”. Also, the 50% inhibitory concentration (IC50) in assay [1] (setting [4]) and in assay [2] was under 50 nM throughout.

As for `O=C(CCc1cn(-c2ccccc2)nn1)N[C@@H](Cc1ccc2ccccc2c1)B(O)O` [Example 98, (R)-(2-(naphthalen-2-yl)-1-(3-(1-phenyl-1H-1,2,3-triazol-4-yl)propanamido)ethyl)boronic acid], in assay [1], the “Selectivity LMP7 vs Beta5” value is “++ (++: 10 < Selectivity < 30)”. Further, the half-inhibitory concentration (IC50) in assay [1] (setting [3]) is under 50 nM; in assay [2] it was 50 to 500 nM.

`O=C(CCc1cn(-c2cccnc2)nn1)N[C@@H](Cc1ccc2ccccc2c1)B(O)O` [Example 99, (R)-(2-(naphthalen-2-yl)-1-(3-(1-(pyridin-3-yl)-1H-1,2,3-triazol-4-yl)propanamido)ethyl)boronic acid]: the “Selectivity LMP7 vs Beta5” value in assay [1] is “+++ (+++: Selectivity > 30)”. Also, the IC50 is under 50 nM in assay [1] (setting [3]) and 500 to 5000 nM in assay [2].

`COc1ccc(-n2cc(CCC(=O)N[C@@H](Cc3ccc4ccccc4c3)B(O)O)nn2)cc1` [Example 100, (R)-(1-(3-(1-(4-methoxyphenyl)-1H-1,2,3-triazol-4-yl)propanamido)-2-(naphthalen-2-yl)ethyl)boronic acid]: in assay [1], the “Selectivity LMP7 vs Beta5” value was “++ (++: 10 < Selectivity < 30)”. The IC50 was under 50 nM in assay [1] (setting [3]) and 50 to 500 nM in assay [2].

Take `O=C(CCn1c(=O)sc2ccccc21)N[C@@H](Cc1c[nH]c2ccccc12)B(O)O` [Example 101]: the “Selectivity LMP7 vs Beta5” value in assay [1] is given as “+++ (+++: Selectivity > 30)”. The IC50 in assay [1] (setting [4]) and in assay [2] was under 50 nM in each case.

As to `Cn1ncc2cc(C[C@H](NC(=O)CCn3c(=O)sc4ccccc43)B(O)O)ccc21` [Example 102, (R)-(2-(1-methyl-1H-indazol-5-yl)-1-(3-(2-oxobenzo[d]thiazol-3(2H)-yl)propanamido)ethyl)boronic acid], the “Selectivity LMP7 vs Beta5” value in assay [1] is given as “++ (++: 10 < Selectivity < 30)”. Also, the IC50 in assay [1] (setting [3]) and in assay [2] was under 50 nM throughout.

With `Cn1ncc2cc(C[C@H](NC(=O)CCn3cc(-c4ccccc4)nn3)B(O)O)ccc21` [Example 103, (R)-(2-(1-methyl-1H-indazol-5-yl)-1-(3-(4-phenyl-1H-1,2,3-triazol-1-yl)propanamido)ethyl)boronic acid], in assay [1], the “Selectivity LMP7 vs Beta5” value was “++ (++: 10 < Selectivity < 30)”. Besides, the IC50 in assay [1] (setting [3]) and in assay [2] was under 50 nM each time.

For `O=C(CCn1cc(-c2ccccc2)nn1)N[C@@H](Cc1csc2ccccc12)B(O)O` [Example 104, (R)-(2-(benzo[b]thiophen-3-yl)-1-(3-(4-phenyl-1H-1,2,3-triazol-1-yl)propanamido)ethyl)boronic acid], the “Selectivity LMP7 vs Beta5” value in assay [1] is on record as “+ (+: Selectivity < 10)”. Moreover, the IC50 in assay [1] (setting [3]) and in assay [2] was under 50 nM throughout.

Take `O=C(CCn1c(=O)sc2ccccc21)N[C@@H](Cc1csc2ccccc12)B(O)O` [Example 105, (R)-(2-(benzo[b]thiophen-3-yl)-1-(3-(2-oxobenzo[d]thiazol-3(2H)-yl)propanamido)ethyl)boronic acid]: the “Selectivity LMP7 vs Beta5” value in assay [1] was “++ (++: 10 < Selectivity < 30)”. Further, the IC50 in assay [1] (setting [3]) and in assay [2] was under 50 nM in each case.

Regarding `O=C(CCn1cnc2ccccc21)N[C@@H](Cc1csc2ccccc12)B(O)O` [Example 106, (R)-(1-(3-(1H-benzo[d]imidazol-1-yl)propanamido)-2-(benzo[b]thiophen-3-yl)ethyl)boronic acid], the “Selectivity LMP7 vs Beta5” value in assay [1] was “++ (++: 10 < Selectivity < 30)”. For the same molecule, the IC50 in assay [1] (setting [3]) and in assay [2] was under 50 nM each time.

Take `O=C(CCn1cc(-c2ccccc2)nn1)N[C@@H](Cc1ccc2c(c1)OCO2)B(O)O` [Example 107, (R)-(2-(benzo[d][1,3]dioxol-5-yl)-1-(3-(4-phenyl-1H-1,2,3-triazol-1-yl)propanamido)ethyl)boronic acid]: the “Selectivity LMP7 vs Beta5” value in assay [1] was “++ (++: 10 < Selectivity < 30)”. Further, the IC50 in assay [1] (setting [3]) and in assay [2] was under 50 nM in each case.

On to `COc1ccc2occ(C[C@H](NC(C)=O)B(O)O)c2c1` [Example 108, (R)-(1-acetamido-2-(5-methoxybenzofuran-3-yl)ethyl)boronic acid], for which the “Selectivity LMP7 vs Beta5” value in assay [1] is on record as “+ (+: Selectivity < 10)”. For the same molecule, the IC50 in assay [1] (setting [3]) and in assay [2] was over 5000 nM each time.

On to `COc1ccc2occ(C[C@H](NC(=O)CCn3c(=O)sc4ccccc43)B(O)O)c2c1` [Example 109, (R)-(2-(5-methoxybenzofuran-3-yl)-1-(3-(2-oxobenzo[d]thiazol-3(2H)-yl)propanamido)ethyl)boronic acid], for which the “Selectivity LMP7 vs Beta5” value in assay [1] is given as “+ (+: Selectivity < 10)”. Moreover, the results for the concentration for half-maximal inhibition (IC50) in assay [1] (setting [3]) and in assay [2] were under 50 nM and 50 to 500 nM, respectively.

Consider `CCc1cccc(C[C@H](NC(=O)C(Cn2cc(-c3ccccc3)nn2)Cn2ccsc2=O)B(O)O)c1` (stereo partly drawn) [Example 110, ((1R)-2-(3-ethylphenyl)-1-(3-(2-oxothiazol-3(2H)-yl)-2-((4-phenyl-1H-1,2,3-triazol-1-yl)methyl)propanamido)ethyl)boronic acid], for which the “Selectivity LMP7 vs Beta5” value in assay [1] is on record as “++ (++: 10 < Selectivity < 30)”. For the same molecule, the IC50 in assay [1] (setting [4]) and in assay [2] was under 50 nM each time.
